Results as given in paper PMC6211316, “Synthesis and biological evaluation of 3-arylcoumarin derivatives as potential anti-diabetic agents” (Journal of Enzyme Inhibition and Medicinal Chemistry, 2018).
Like-named read-outs stand apart in the source and are kept apart here.

How the values were obtained:
[1] = DPPH free radical scavenging; details: mean ± SD (n = 3)
Description: The effect of target compounds and vitamin C to scavenge the DPPH free radical was evaluated with the method described by Villano et al.[43] with slight modifications.
Two millilitres of different concentrations of the sample solution was added to 2.0 ml of DPPH solution (0.04 mg/mL), shaken and allowed to react at room temperature for 30 min. The absorbance value was measured at 517 nm with an ultraviolet-visible spectrophotometer. The blank reference cuvette contained absolute ethanol. All measurements were performed in triplicate. IC50 values were calculated. The percentage of DPPH radical scavenging rate of the target compound is calculated as follows: DPPH free radical scavenging effect (%)=[A0−(A1−A2)]/A0×100% where A0 is the absorbance of 2.0 ml DPPH solution +2.0 ml absolute ethanol; A1 is the absorbance of 2.0 ml DPPH solution +2.0 ml 3-arylcoumarins solution or standard; A2 is the absorbance of 2.0 ml 3-arylcoumarins solution or standard +2.0 ml absolute ethanol.

[2] = hydroxyl radical scavenging; details: mean ± SD (n = 3), read-out: OH IC50 Value
Description: The ability of the target compounds and vitamin C to scavenge the hydroxyl radical was evaluated with method described by Ismaili et al.[29] with slight modifications. In test tube, 1.0 ml H2O2 solution (0.03%), 1.0 ml FeSO4 solution (2 mmol.L^−1), 1.0 ml salicylic acid solution (10 mmol.L^−1) and 1.0 ml of 3-arylcoumarins and standard water solution with different concentration (0.4–2.0 mg/mL) were mixed. Finally, 1.0 ml H2O2 solution (0.03%) was added to this mixture to start the reaction. Solutions were kept at 37 °C. After 30 min, the absorbance was measured at 510 nm against the reagent blank, where the distilled water was substituted for the H2O2 solution. The percentage of OH scavenging by target compounds and vitamin C was calculated the following equation: OH scavenging effect (%)=[A0−(A1−A2)]/A0×100% where A0 is the absorbance of 1.0 ml distilled water +1.0 ml H2O2 + 1.0 ml FeSO4 + 1.0 ml salicylic acid +1.0 ml H2O2; A1 is the absorbance of 1.0 ml 3-arylcoumarins or standard +1.0 ml H2O2 + 1.0 ml FeSO4 + 1.0 ml salicylic acid +1.0 ml H2O2; A2 is the absorbance of 1.0 ml 3-arylcoumarins or standard +1.0 ml H2O2 + 1.0 ml FeSO4 + 1.0 ml absolute absolute ethanol +1.0 ml H2O2.

α-Glucosidase = target: T1, α-Glucosidase (Saccharomyces cerevisiae, UniProt P53341); assay: biochemical; assay type: biochemical
T1 construct: purchased Sigma Aldrich G0660-750UN
Description: α-Glucosidase (G0660-750UN, Sigma Aldrich) and 4-Nitrophenyl α-D-glucopyranoside (PNPG, Macklin) were dissolved in phosphate buffer (pH 6.8, 100 mM), and the test compounds were dissolved in DMSO solution. The experiment was divided into blank group, control group, sample blank group, and sample group. The reagents were loaded in 96-well plates at the dose of the table (Table 8). The solution was bathed in 37 °C water for 10 min, and then enzyme solution was added. After reaction at 37 °C for 20 min, 70 μL Na2CO3 solution ([…]) was added to stop the reaction. All experiments were run in triplicate. […] Since PNPG can produce glucose and p-Nitrophenol (PNP) under the action of α-glucosidase, PNP has the greatest absorption at 405 nm. The absorbance was determined by the microplate reader, and the inhibition rate of α-glucosidase and the IC50 value of each sample were calculated according to the formula. Inhibition rate %={[(AC−AB)−(AS−ASB)]/(AC−AB)}×100% where AC is the absorbance of control group; AB is the absorbance of blank group; AS is the absorbance of sample group; ASB is the absorbance of sample blank group.

AGEs formation = assay: In vitro inhibitory activity of AGEs formation (bovine serum albumin/glucose); assay type: biochemical; details: mean ± SD (n = 3)
Description: To prepare the AGEs reaction solution, 10 mg/mL of bovine serum albumin in 50 mM PBS (pH 7.4) was added to 0.2 M glucose, and 0.02% sodium azide was added to prevent bacterial growth. The reaction mixture (3.0 ml) was then mixed with various concentrations (0.5–1000 μg/mL) of the target compounds (1.0 ml) dissolved in DMSO. After incubating at 37 °C for 14 d, the fluorescence intensity of AGE was determined by a fluorospectrophotometer (PE, USA) with excitation and emission wavelengths at 350 nm and 420 nm, respectively. All experiments were run in triplicate. Aminoguanidine hydrochloride was used as a reference compound. The inhibition rate of AGEs formation and the IC50 value of each sample were calculated according to the formula. Inhibition rate %={[(AC−AB)−(AS−ASB)]/(AC−AB)}×100% where AC is the absorbance of control group(1.0 ml glucose +1.0 ml bovine serum albumin +1.0 ml sodium azide +1.0 ml DMSO); AB is the absorbance of blank group(1.0 ml PBS +1.0 ml bovine serum albumin +1.0 ml sodium azide +1.0 ml DMSO); AS is the absorbance of sample group (1.0 ml glucose +1.0 ml bovine serum albumin +1.0 ml sodium azide +1.0 ml target compound solution or Aminoguanidine hydrochloride solution); ASB is the absorbance of sample blank group (1.0 ml PBS +1.0 ml bovine serum albumin +1.0 ml sodium azide +1.0 ml target compound solution or Aminoguanidine hydrochloride solution).

STZ-diabetic mice = assay: Acute hypoglycemic assay in STZ-diabetic mice; assay type: in vivo; details: for Blood glucose concentration / % Variation of glycemia: STZ-diabetics mice, 10 mg/kg of bw per os
Description: Type II diabetes mellitus was induced in mice by a single intraperitoneal injection of freshly prepared STZ (Sigma Aldrich) dissolved in 0.1M citrate buffer, pH 4.5, in a volume of 110 mg/kg of bw. After 7 days of STZ administration, blood glucose levels of each mouse were determined. Mice with blood glucose levels higher than 11 mM were considered diabetic and were included in the study.
(§1) STZ-induced diabetic mice and normal mice were placed in single cages with wire-net floors and deprived of food for 12 h before experimentation but allowed free access to tap water throughout. The compounds (at the doses of 10, 30, and 100 mg/kg of bw) were suspended in 0.05% Tween-80 in saline solution. Glibenclamide (10 mg/kg of bw) was suspended in the same vehicle. The target compounds were freshly prepared immediately before experimentation and administered by the intragastrical route at the doses of 10 ml/kg of bw. Control mice received only the vehicle (0.05% Tween-80 in saline solution) by the same route. Blood glucose levels were measured at 0, 1.5, 3, 5, 7, and 9 h after drugs administration.

normal mice = assay: Acute hypoglycemic assay in normal mice; assay type: in vivo; details: 10 mg/kg of bw per os
Description: as §1

[3] = mean ± SD (n = 3), read-out: α-Glucosidase inhibitory activity IC50 Value

T1 sequence (P53341 whole entry): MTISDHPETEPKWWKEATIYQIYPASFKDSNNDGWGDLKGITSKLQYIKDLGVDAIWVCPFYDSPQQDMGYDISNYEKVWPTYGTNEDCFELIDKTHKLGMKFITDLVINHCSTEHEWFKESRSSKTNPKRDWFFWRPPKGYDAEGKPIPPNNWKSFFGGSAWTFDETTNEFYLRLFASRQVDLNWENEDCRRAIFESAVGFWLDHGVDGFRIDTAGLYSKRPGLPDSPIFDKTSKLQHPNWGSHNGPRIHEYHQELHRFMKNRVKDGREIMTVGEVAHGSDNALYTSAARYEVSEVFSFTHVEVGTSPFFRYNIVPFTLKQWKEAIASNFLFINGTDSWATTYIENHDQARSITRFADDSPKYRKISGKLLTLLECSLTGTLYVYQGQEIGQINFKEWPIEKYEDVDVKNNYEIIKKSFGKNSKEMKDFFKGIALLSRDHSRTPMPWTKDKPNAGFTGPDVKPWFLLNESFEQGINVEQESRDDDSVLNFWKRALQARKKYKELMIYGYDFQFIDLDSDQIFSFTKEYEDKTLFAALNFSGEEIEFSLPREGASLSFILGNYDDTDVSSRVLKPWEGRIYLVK

SMILES: Cc1ccccc1-c1cc2cccc(O)c2oc1=O [Compound 10, 8-Hydroxy-3-(2-methylphenyl)-coumarin]
- IC50 [1]: > 1000 µM
- IC50 [2]: > 1000 µM
- IC50 (α-Glucosidase): > 1000 µM
- IC50 (AGEs formation): > 1000 µM
- melting point: 212.7 to 213 °C

SMILES: Cc1ccc(-c2cc3ccc(O)cc3oc2=O)cc1 [Compound 9, 7-Hydroxy-3-(4-methylphenyl)-coumarin]
- IC50 [1]: 60.2 ± 1.27 µM
- IC50 [2]: > 1000 µM
- IC50 (α-Glucosidase; [3]): 118 ± 41.5 µM
- IC50 (AGEs formation): > 1000 µM

SMILES: O=c1oc2c(O)c(O)ccc2cc1-c1ccc(O)c(O)c1 [Compound 36, 7,8-Dihydroxy-3-(3,4-dihydroxyphenyl)-coumarin]
- IC50 [1]: 1.33 ± 0.03 µM
- IC50 [2]: 244 ± 11.8 µM
- IC50 (α-Glucosidase; [3]): 247 ± 36.2 µM
- IC50 (AGEs formation): 14.2 ± 1.33 µM

SMILES: O=c1oc2c(O)cccc2cc1-c1ccc(O)cc1 [Compound 14, 8-Hydroxy-3-(4-hydroxyphenyl)-coumarin]
- IC50 [1]: 167 ± 2.01 µM
- IC50 [2]: > 1000 µM
- IC50 (α-Glucosidase): 213 ± 40.3 µM
- IC50 (AGEs formation): 45.2 ± 5.28 µM

SMILES: COc1ccc(-c2cc3cccc(O)c3oc2=O)cc1 [Compound 22, 8-Hydroxy-3-(4-methoxyphenyl)-coumarin]
- IC50 [1]: 15.63 ± 0.11 µM
- IC50 [2]: > 1000 µM
- IC50 (α-Glucosidase): > 1000 µM
- IC50 (AGEs formation): 23.1 ± 0.82 µM

SMILES: O=c1oc2ccccc2cc1-c1ccc(Br)cc1 [Compound 40, 3-(4-brominephenyl)-coumarin]
- IC50 [1]: > 1000 µM
- IC50 [2]: > 1000 µM
- IC50 (α-Glucosidase; [3]): > 1000 µM
- IC50 (AGEs formation): 13 ± 0.4 µM

SMILES: COc1ccc(-c2cc3ccc(O)cc3oc2=O)cc1OC [Compound 37, 7-Hydroxy-3-(3,4-dimethoxyphenyl)-coumarin]
- IC50 [1]: 173 ± 42.6 µM
- IC50 [2]: > 1000 µM
- IC50 (α-Glucosidase; [3]): > 1000 µM

SMILES: COc1ccc(-c2cc3ccc(O)cc3oc2=O)cc1 [Compound 24, 7-Hydroxy-3-(4-methoxyphenyl)-coumarin]
- IC50 [1]: 53.9 ± 1.83 µM
- IC50 [2]: > 1000 µM
- IC50 (α-Glucosidase; [3]): 27.42 ± 0.11 µM
- IC50 (AGEs formation): > 1000 µM

SMILES: O=c1oc2c(O)c(O)ccc2cc1-c1ccc(Br)cc1 [Compound 47, 7,8-Dihydroxy-3-(4-brominephenyl)-coumarin]
- IC50 [1]: 2.37 ± 0.06 µM
- IC50 [2]: 688 ± 49.7 µM
- IC50 (α-Glucosidase; [3]): 35.7 ± 0.48 µM
- IC50 (AGEs formation): 299 ± 40.1 µM

SMILES: O=c1oc2cc(O)cc(O)c2cc1-c1ccc(Br)cc1 [Compound 46, 5,7-Dihydroxy-3-(4-brominephenyl)-coumarin]
- IC50 [1]: > 1000 µM
- IC50 [2]: > 1000 µM
- IC50 (α-Glucosidase; [3]): > 1000 µM
- IC50 (AGEs formation): 47.75 ± 0.15 µM

SMILES: O=c1oc2cc(O)ccc2cc1-c1ccc(F)cc1 [Compound 18, 7-Hydroxy-3-(4-fluorophenyl)-coumarin]
- IC50 [1]: > 1000 µM
- IC50 [2]: > 1000 µM
- IC50 (α-Glucosidase; [3]): 86.9 ± 1.17 µM
- IC50 (AGEs formation): 20.6 ± 0.39 µM

SMILES: O=c1oc2c(O)cccc2cc1-c1ccc(Br)cc1 [Compound 45, 8-Hydroxy-3-(4-brominephenyl)-coumarin]
- IC50 [1]: 488 ± 95 µM
- IC50 [2]: 596 ± 28.8 µM
- IC50 (α-Glucosidase; [3]): > 1000 µM
- IC50 (AGEs formation): > 1000 µM

SMILES: Cc1ccc(C)c(-c2cc3ccc(O)c(O)c3oc2=O)c1 [Compound 33, 7,8-Dihydroxy-3-(2,5-dimethylphenyl)-coumarin]
- IC50 [1]: 2.98 ± 0.03 µM
- IC50 [2]: 903 ± 41.9 µM
- IC50 (α-Glucosidase): > 1000 µM
- melting point: 190.3 to 190.5 °C

SMILES: O=c1oc2cc(O)ccc2cc1-c1ccc(Br)cc1 [Compound 44, 7-Hydroxy-3-(4-brominephenyl)-coumarin]
- IC50 [1]: > 1000 µM
- IC50 [2]: > 1000 µM
- IC50 (α-Glucosidase; [3]): > 1000 µM
- IC50 (AGEs formation): 7.51 ± 0.38 µM

SMILES: O=c1oc2ccccc2cc1-c1ccc(O)cc1 [Compound 6, 3-(4-Hydroxyphenyl)-coumarin]
- IC50 [1]: > 1000 µM
- IC50 [2]: > 1000 µM
- IC50 (α-Glucosidase; [3]): 60.88 ± 0.55 µM
- IC50 (AGEs formation): > 1000 µM

SMILES: O=c1oc2cc(O)ccc2cc1-c1ccc(O)cc1 [Compound 12, 7-Hydroxy-3-(4-hydroxyphenyl)-coumarin]
- IC50 [1]: 756 ± 8.31 µM
- IC50 [2]: > 1000 µM
- IC50 (α-Glucosidase; [3]): 19.9 ± 3.39 µM

SMILES: O=c1oc2cc(O)cc(O)c2cc1-c1ccc(F)cc1 [Compound 31, 5,7-Dihydroxy-3-(4-fluorophenyl)-coumarin]
- IC50 [1]: 595 ± 11.3 µM
- IC50 [2]: > 1000 µM
- IC50 (α-Glucosidase): 19.1 ± 0.26 µM
- melting point: 267 to 267.6 °C

SMILES: COc1ccc(Cl)cc1C(=O)NCCc1ccc(S(=O)(=O)NC(=O)NC2CCCCC2)cc1 [Glibenclamide, reference compound]
- Blood glucose concentration (STZ-diabetic mice; 0h): 16.9 ± 4.3 mM
- % Variation of glycemia (STZ-diabetic mice; 1.5h): (−55.28) %
- Blood glucose concentration (STZ-diabetic mice; 1.5h): 7.2 ± 4.0 mM
- % Variation of glycemia (STZ-diabetic mice; 3h): (−57.14) %
- Blood glucose concentration (STZ-diabetic mice; 3h): 6.9 ± 1.6 mM
- % Variation of glycemia (STZ-diabetic mice; 5h): (−55.90) %
- Blood glucose concentration (STZ-diabetic mice; 5h): 6.7 ± 2.5 mM
- % Variation of glycemia (STZ-diabetic mice; 7h): (−59.63) %
- Blood glucose concentration (STZ-diabetic mice; 7h): 6.5 ± 2.2 mM
- % Variation of glycemia (STZ-diabetic mice; 9h): (−70.81) %
- Blood glucose concentration (STZ-diabetic mice; 9h): 4.9 ± 2.5 mM
- time of maximum hypoglycemic effect (STZ-diabetic mice; STZ-induced diabetic mice, 10 mg/kg of bw): 9 h
- Blood glucose concentration (normal mice; 0h): 9.8 ± 1.5 mM
- % Variation of glycemia (normal mice; 1.5h): (−34.58) %
- Blood glucose concentration (normal mice; 1.5h): 6.4 ± 1.4 mM
- % Variation of glycemia (normal mice; 3h): (−41.36) %
- Blood glucose concentration (normal mice; 3h): 5.8 ± 0.8 mM
- % Variation of glycemia (normal mice; 5h): (−49.15) %
- Blood glucose concentration (normal mice; 5h): 5.0 ± 1.4 mM
- % Variation of glycemia (normal mice; 7h): (−56.61) %
- Blood glucose concentration (normal mice; 7h): 4.3 ± 0.6 mM
- % Variation of glycemia (normal mice; 9h): (−58.31) %
- Blood glucose concentration (normal mice; 9h): 4.1 ± 0.7 mM
